Experimental data reported in ChEMBL document CHEMBL4308864, “Targeting tyrosine kinase: Development of acridone - pyrrole - oxindole hybrids against human breast cancer” (2019).

Legend:
Format in all cases: functional
MCF7 = test: Growth inhibition of human MCF7 cells at 10^-5 M incubated for 48 hrs by sulforhodamine B assay relative to control; details: MCF7, 48 h, read-out: GI
T47D = test: Growth inhibition of human T47D cells at 10^-5 M incubated for 48 hrs by sulforhodamine B assay relative to control; details: read-out: GI
MDA-MB-468 = test: Growth inhibition of human MDA-MB-468 cells at 10^-5 M incubated for 48 hrs by sulforhodamine B assay relative to control; details: MDA-MB-468, 48 h, read-out: GI

`O=C1/C(=C\c2cccn2Cc2ccccc2)c2ccccc2N1c1c(Cl)cccc1Cl` gave an inhibition of growth at 10 µM (MCF7) of 93%, an inhibition of growth at 10 µM (T47D) of 100% and an inhibition of growth at 10 µM (MDA-MB-468) of 100%.
